Consider three molecules from publication PMC3602154 (PLoS ONE, 2013).

SMILES strings stand for the structures.

One may read the Ki as the dissociation constant of the complex between target and ligand, obtained from inhibition or displacement. Usually inhibition stands for the change of the read-out against control, counted positive when it falls.

In one assay the target is Beta2 (Homo sapiens, UniProt P07550). In words: PDSP radioligand binding, adrenoceptor ß2. The text has this: (§1) [17] and http://pdsp.med.unc.edu/UNC-CH%20Protocol%20Book.pdf.
Chain of Beta2 (P07550 whole entry): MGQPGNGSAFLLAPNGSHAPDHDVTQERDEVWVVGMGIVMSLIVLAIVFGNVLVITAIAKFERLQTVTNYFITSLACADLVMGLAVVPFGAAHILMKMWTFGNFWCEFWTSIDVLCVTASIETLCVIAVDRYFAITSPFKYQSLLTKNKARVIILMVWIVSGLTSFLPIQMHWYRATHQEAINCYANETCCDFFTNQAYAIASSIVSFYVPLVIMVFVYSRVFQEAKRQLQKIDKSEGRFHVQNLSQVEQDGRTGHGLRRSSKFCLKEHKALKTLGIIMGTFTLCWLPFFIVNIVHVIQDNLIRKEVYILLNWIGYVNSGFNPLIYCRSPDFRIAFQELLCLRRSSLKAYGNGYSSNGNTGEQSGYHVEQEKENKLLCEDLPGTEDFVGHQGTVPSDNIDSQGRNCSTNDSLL
A further assay deals with Sigma2 (Homo sapiens, UniProt Q5BJF2). In words: PDSP radioligand binding, Sigma2. To be noted: for inhibition at 10 µM: quadruplicate, read-out: Sigma2 Primary Screen inhibition of binding.
Chain of Sigma2 (Q5BJF2 whole entry): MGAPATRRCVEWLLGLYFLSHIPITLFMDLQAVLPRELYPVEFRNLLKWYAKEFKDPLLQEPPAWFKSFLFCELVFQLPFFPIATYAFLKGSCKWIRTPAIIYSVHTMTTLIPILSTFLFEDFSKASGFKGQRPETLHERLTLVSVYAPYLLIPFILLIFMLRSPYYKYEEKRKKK
Excerpt: as §1

Another assay concerns the target T1, 5-HT3 (Homo sapiens, UniProt P46098).
T1 sequence (P46098 24-478): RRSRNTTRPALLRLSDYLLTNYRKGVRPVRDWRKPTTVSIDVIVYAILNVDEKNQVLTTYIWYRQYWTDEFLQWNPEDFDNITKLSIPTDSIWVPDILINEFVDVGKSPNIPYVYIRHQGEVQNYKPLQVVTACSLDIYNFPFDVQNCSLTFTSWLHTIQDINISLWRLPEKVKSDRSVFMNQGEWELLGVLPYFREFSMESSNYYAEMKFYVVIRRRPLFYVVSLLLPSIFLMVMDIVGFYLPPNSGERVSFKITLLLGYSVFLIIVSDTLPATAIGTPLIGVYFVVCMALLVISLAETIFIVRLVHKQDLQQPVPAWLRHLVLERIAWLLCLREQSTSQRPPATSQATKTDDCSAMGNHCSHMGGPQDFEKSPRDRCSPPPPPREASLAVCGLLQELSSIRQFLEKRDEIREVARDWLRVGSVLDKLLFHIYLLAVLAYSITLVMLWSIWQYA
In words: PDSP radioligand binding, serotonin receptor 5-HT3.
Excerpt: as §1

The next assay has as its target M3 (Homo sapiens, UniProt P20309). In words: PDSP radioligand binding, muscarinic receptor M3.
Excerpt: as §1

The target of the next assay is 5-HT2A (Homo sapiens, UniProt P28223). In words: PDSP radioligand binding, serotonin receptor 5-HT2A.
Chain of 5-HT2A (P28223 whole entry): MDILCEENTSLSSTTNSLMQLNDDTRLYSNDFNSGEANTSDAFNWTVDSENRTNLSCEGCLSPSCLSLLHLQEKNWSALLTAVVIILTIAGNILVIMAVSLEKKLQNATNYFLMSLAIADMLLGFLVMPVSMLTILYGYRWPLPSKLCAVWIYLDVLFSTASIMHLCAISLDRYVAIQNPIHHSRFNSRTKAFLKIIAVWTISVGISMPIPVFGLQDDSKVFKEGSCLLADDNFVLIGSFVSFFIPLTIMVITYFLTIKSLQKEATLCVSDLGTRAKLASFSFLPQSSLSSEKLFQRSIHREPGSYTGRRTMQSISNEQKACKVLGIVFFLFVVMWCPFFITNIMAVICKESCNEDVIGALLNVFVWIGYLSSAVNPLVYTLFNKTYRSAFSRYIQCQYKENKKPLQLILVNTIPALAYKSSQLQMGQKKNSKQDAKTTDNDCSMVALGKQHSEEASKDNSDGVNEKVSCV
Excerpt: as §1

Assay [1] addresses SERT (serotonin transporter) (Homo sapiens, UniProt P31645). In words: biochemical. To be noted: for Ki: Table 2. In kind it is binding.
Excerpt: as §1

The target in a further assay is T2, 5-HT2C (Homo sapiens, UniProt P28335).
T2 sequence (P28335 33-458): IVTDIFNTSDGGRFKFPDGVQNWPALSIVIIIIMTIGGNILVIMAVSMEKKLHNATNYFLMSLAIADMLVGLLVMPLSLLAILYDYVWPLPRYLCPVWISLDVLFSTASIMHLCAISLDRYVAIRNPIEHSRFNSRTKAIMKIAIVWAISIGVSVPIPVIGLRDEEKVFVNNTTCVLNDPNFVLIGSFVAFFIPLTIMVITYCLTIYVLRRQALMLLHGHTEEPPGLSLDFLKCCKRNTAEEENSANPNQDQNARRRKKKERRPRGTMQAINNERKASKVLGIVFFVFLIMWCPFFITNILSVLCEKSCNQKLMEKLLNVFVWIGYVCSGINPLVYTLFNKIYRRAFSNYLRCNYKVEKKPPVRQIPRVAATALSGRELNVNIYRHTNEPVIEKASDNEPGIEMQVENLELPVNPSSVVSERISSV
In words: PDSP radioligand binding, serotonin receptor 5-HT2C.
Excerpt: as §1

Chain of M3 (P20309 whole entry): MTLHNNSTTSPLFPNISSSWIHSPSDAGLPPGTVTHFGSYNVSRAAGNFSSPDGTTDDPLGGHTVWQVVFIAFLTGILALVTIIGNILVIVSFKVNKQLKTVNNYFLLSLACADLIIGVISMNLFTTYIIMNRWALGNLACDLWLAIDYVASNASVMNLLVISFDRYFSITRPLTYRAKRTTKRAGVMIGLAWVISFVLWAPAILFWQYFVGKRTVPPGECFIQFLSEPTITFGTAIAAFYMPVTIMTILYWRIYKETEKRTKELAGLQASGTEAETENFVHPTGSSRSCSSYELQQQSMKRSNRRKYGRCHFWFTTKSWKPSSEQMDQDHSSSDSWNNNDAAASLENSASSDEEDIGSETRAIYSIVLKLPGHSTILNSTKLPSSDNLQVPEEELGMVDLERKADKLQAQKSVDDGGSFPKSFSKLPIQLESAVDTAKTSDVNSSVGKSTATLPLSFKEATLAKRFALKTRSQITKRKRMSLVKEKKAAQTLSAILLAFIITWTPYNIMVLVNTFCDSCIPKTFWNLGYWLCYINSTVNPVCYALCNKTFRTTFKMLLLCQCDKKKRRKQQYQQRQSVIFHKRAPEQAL
Chain of SERT (serotonin transporter) (P31645 whole entry, species assumed): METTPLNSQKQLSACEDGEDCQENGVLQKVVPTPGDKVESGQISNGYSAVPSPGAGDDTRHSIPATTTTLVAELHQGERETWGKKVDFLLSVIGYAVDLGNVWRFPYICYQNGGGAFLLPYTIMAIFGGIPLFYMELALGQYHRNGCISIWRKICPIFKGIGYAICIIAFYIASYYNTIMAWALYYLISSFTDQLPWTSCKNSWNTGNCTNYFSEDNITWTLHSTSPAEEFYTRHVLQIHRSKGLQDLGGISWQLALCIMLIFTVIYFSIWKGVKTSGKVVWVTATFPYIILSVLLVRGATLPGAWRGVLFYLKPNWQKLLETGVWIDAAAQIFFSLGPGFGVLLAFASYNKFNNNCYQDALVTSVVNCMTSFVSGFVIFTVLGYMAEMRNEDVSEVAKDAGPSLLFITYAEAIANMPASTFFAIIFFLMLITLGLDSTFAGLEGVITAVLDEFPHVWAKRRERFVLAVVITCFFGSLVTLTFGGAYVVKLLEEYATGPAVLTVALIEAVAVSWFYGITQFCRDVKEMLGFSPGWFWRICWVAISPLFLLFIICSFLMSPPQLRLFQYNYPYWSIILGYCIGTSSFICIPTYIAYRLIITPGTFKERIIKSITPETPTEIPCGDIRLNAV

`COc1cccc(C2(N3CCCCC3)CCCCC2)c1` [3-MeO-PCP, 1-[1-(3-methoxyphenyl)cyclohexyl]piperidine]: the Ki at Beta2 is greater than 10 µM; at 5-HT3 it was greater than 10 µM; on M3, greater than 10 µM; on 5-HT2A, greater than 10 µM; in assay [1], 0.216 µM; on 5-HT2C, greater than 10 µM. The inhibition at 10 µM at Sigma2 was less than 50%.
Take `CCNC1(c2cccc(OC)c2)CCCCC1=O` (racemic) [Methoxetamine, (RS)-2-(ethylamino)-2-(3-methoxyphenyl)cyclohexanone]: the Ki at Beta2 was greater than 10 µM; on Sigma2 (Ki Sigma 2, Table S1, unit inferred), greater than 10 µM; at 5-HT3, greater than 10 µM; on M3, greater than 10 µM; at 5-HT2A, greater than 10 µM; at 5-HT2C, greater than 10 µM. The inhibition at 10 µM at Sigma2 was less than 50%.
On to `COc1ccc(C2(N3CCCCC3)CCCCC2)cc1` [4-MeO-PCP, 1-[1-(4-methoxyphenyl)cyclohexyl]piperidine], for which the Ki was greater than 10 µM on Beta2; greater than 10 µM at 5-HT3; greater than 10 µM on M3; greater than 10 µM on 5-HT2A; 0.844 µM in assay [1]; greater than 10 µM on 5-HT2C. The “affinity for the serotonin transporter (SERT), in words” value in assay [1] is on record as “submicromolar affinities”.
